The source of these data is ChEMBL document CHEMBL5252641, “Design, synthesis, and evaluation of benzofuran-based chromenochalcones for antihyperglycemic and antidyslipidemic activities” (RSC Med Chem, 2023).

Test [1] is described as follows: Antioxidant activity assessed as hydroxyl radical scavenging activity at 100 uM incubated for 90 mins by spectrophotometric analysis. It is filed as functional.
Test [2] has as its system Syrian golden hamster. Kind of test: Antidyslipidemic activity in Triton-induced hyperlipidemic Syrian golden hamster model assessed as decrease in triglyceride level at 50 mg/kg measured after 18 hrs. It is filed as functional, Mesocricetus auratus. On the set-up: scale not given: the % may be the effect or the level left.
Test [3] concerns Syrian golden hamster. As to the kind of experiment: Antidyslipidemic activity in Triton-induced hyperlipidemic Syrian golden hamster model assessed as increase in lecithin-cholesterol acyltransferase level at 50 mg/kg measured after 18 hrs. It is filed as functional, Mesocricetus auratus.
Test [4] has as its system Syrian golden hamster. Kind of test: Antidyslipidemic activity in Triton-induced hyperlipidemic Syrian golden hamster model assessed as decrease in total cholesterol level at 50 mg/kg measured after 18 hrs. On the set-up: scale not given: the % may be the effect or the level left. It is filed as functional, Mesocricetus auratus.
The subject of test [5] is Syrian golden hamster. Kind of test: Antidyslipidemic activity in Triton-induced hyperlipidemic Syrian golden hamster model assessed as increase in post-heparin lipolytic activity at 50 mg/kg measured after 18 hrs. It is filed as functional, Mesocricetus auratus.
A short description of test [6]: Antioxidant activity assessed as superoxide anion radical scavenging activity at 100 uM incubated for 30 mins by spectrophotometric analysis. It counts as functional.
The test system of test [7] is Syrian golden hamster. Kind of test: Antidyslipidemic activity in Triton-induced hyperlipidemic Syrian golden hamster model assessed as decrease in PL level at 50 mg/kg measured after 18 hrs. It is filed as functional, Mesocricetus auratus. Set-up: scale not given: the % may be the effect or the level left.
The test system of test [8] is L6. As to the kind of experiment: Induction of glucose uptake in rat L6 cells expressing GLUT4 myc epitopes at 5 uM incubated for 24 hrs by scintillation counting method relative to control. It counts as functional.
For test [9], the system named is L6. As to the kind of experiment: Induction of glucose uptake in rat L6 cells expressing GLUT4 myc epitopes at 10 uM incubated for 24 hrs by scintillation counting method relative to control. It counts as functional.
Test [10] deals with Rattus norvegicus. As to the kind of experiment: Antidiabetic activity in streptozotocin induced hyperglycemic Wistar rat model assessed as improvement in blood glucose level at 100 mg/kg,po measured upto 24 hrs relative to control. It counts as functional.
The subject of test [11] is Rattus norvegicus. Kind of test: Antidiabetic activity in streptozotocin induced hyperglycemic Wistar rat model assessed as improvement in blood glucose level at 100 mg/kg,po measured upto 5 hrs relative to control. It counts as functional.

Consider `CC1(C)C=Cc2c(ccc(C(=O)/C=C/c3ccc4occc4c3)c2O)O1`, for which the Activity in test [1] stood at 12; in the test on Syrian golden hamster [2], 15%; in the test with Syrian golden hamster [3] it was 17%; in the test on Syrian golden hamster [4] it was 13%; in the test with Syrian golden hamster [5], 19%; in test [6], 16. Moreover, the Activity in the test on Syrian golden hamster [7] is 10%; in the test on L6 [8], 96%; in the test with L6 [9], 161.5%.

Consider `CC1(C)C=Cc2c(O)c(C(=O)/C=C/c3ccc4oc(C(=O)c5ccccc5)cc4c3)c3c(c2O1)C=CC(C)(C)O3`, for which the Activity is 11 in [1]; 18% with Syrian golden hamster [2]; 14% in the test on Syrian golden hamster [3]; 10% in the test with Syrian golden hamster [4]; 23% in the test on Syrian golden hamster [5]; 15 in test [6]. The Activity with Syrian golden hamster [7] is on record as 16%; with L6 [9] it was 26.5%.

Turning to `Cc1ccc(C(=O)c2cc3cc(/C=C/C(=O)c4ccc5c(c4O)C=CC(C)(C)O5)ccc3o2)cc1`, the Activity in [1] turned out to be 10; in the test with Syrian golden hamster [2], 13%; in the test on Syrian golden hamster [3] it was 17%; in the test with Syrian golden hamster [4] it was 13%; with Syrian golden hamster [5], 18%; in [6] it was 11. Also, the Activity in the test with Syrian golden hamster [7] was 11%; in the test with L6 [9], 53.1%.

As for `CN(C)C(=N)NC(=N)N` [METFORMIN], the Activity in the test with Rattus norvegicus [10] worked out at 27.9%; with Rattus norvegicus [11], 30.5%.

With `COc1ccc(C(=O)c2cc3cc(/C=C/C(=O)c4c(O)c5c(c6c4OC(C)(CCC=C(C)C)C=C6)OC(C)(CCC=C(C)C)C=C5)ccc3o2)cc1` (stereo not given), the Activity in test [1] is 11; in the test on Syrian golden hamster [2], 14%; in the test on Syrian golden hamster [3] it was 21%; in the test with Syrian golden hamster [4] it was 18%; with Syrian golden hamster [5] it was 16%; in [6], 9. The Activity stood at 13% in the test on Syrian golden hamster [7] and 37% in the test with L6 [9].

`Oc1ncnc2[nH]ncc12`: the Activity in test [6] turned out to be 37.

Turning to `CC(C)=CCCC1(C)C=Cc2c(ccc(C(=O)/C=C/c3ccc4oc(C(=O)c5ccccc5)cc4c3)c2O)O1` (stereo not given), the Activity came out at 18 in [1]; 10% with Syrian golden hamster [2]; 25% in the test on Syrian golden hamster [3]; 21% in the test on Syrian golden hamster [4]; 18% in the test on Syrian golden hamster [5]; 18 in [6]. Further, the Activity with Syrian golden hamster [7] was determined as 13%; in the test with L6 [9], 20.5%.

In the test on L6 [9], `CN(CCOc1ccc(CC2SC(=O)NC2=O)cc1)c1ccccn1` (stereo not given) [ROSIGLITAZONE] showed an Activity of 96.5%.

`CC1(C)C=Cc2c(O)c(C(=O)/C=C/c3ccc4occc4c3)c3c(c2O1)C=CC(C)(C)O3`: the Activity stood at 12 in test [1]; 0.81% with Rattus norvegicus [10]; 19% with Syrian golden hamster [2]; 15% with Syrian golden hamster [3]; 11% in the test on Syrian golden hamster [4]; 22% with Syrian golden hamster [5]. For the same compound, the Activity in [6] worked out at 16; in the test on Syrian golden hamster [7], 13%; in the test on L6 [9], 124%; in the test with Rattus norvegicus [11], 2.3%.

Turning to `COc1ccc(C(=O)c2cc3cc(/C=C/C(=O)c4c(O)ccc5c4OC(C)(CCC=C(C)C)C=C5)ccc3o2)cc1` (stereo not given), the Activity was 13 in test [1]; 16% in the test on Syrian golden hamster [2]; 19% with Syrian golden hamster [3]; 16% in the test on Syrian golden hamster [4]; 19% with Syrian golden hamster [5]; 11 in [6]. Also, the Activity in the test with Syrian golden hamster [7] is reported as 15%; with L6 [9], 65.5%.

With `CC1(C)C=Cc2ccc(O)c(C(=O)/C=C/c3ccc4oc(C(=O)c5ccc(Cl)cc5)cc4c3)c2O1`, the Activity in test [1] is 12; in the test on Syrian golden hamster [2], 7%; in the test on Syrian golden hamster [3], 10%; in the test with Syrian golden hamster [4], 8%; in the test with Syrian golden hamster [5] it was 11%; in test [6], 17. Also, the results for the Activity with Syrian golden hamster [7] and in the test with L6 [9] were 6% and 89%, respectively.

For the compound `COc1ccc(C(=O)c2cc3cc(/C=C/C(=O)c4c(O)c5c(c6c4OC(C)(C)C=C6)OC(C)(C)C=C5)ccc3o2)cc1`, the Activity was determined as 17 in [1]; 15% in the test with Syrian golden hamster [2]; 12% in the test with Syrian golden hamster [3]; 9% in the test with Syrian golden hamster [4]; 21% with Syrian golden hamster [5]; 12 in test [6]. Besides, the Activity with Syrian golden hamster [7] was 13%; in the test on L6 [9], 22%.

On to `COc1ccc(C(=O)c2cc3cc(/C=C/C(=O)c4ccc5c(c4O)C=CC(C)(CCC=C(C)C)O5)ccc3o2)cc1` (stereo not given), for which the Activity in test [1] turned out to be 7; in the test with Syrian golden hamster [2] it was 10%; with Syrian golden hamster [3], 9%; in the test on Syrian golden hamster [4], 7%; in the test with Syrian golden hamster [5], 14%; in test [6], 9. Further, the Activity in the test on Syrian golden hamster [7] is recorded as 10%; with L6 [9] it was 6%.

Regarding `Cc1ccc(C)c(OCCCC(C)(C)C(=O)O)c1` [GEMFIBROZIL], the Activity with Syrian golden hamster [2] is reported as 36%; with Syrian golden hamster [3], 42%; with Syrian golden hamster [4], 38%; with Syrian golden hamster [5], 41%; with Syrian golden hamster [7], 34%.

`CC(C)=CCCC1(C)C=Cc2c(ccc(C(=O)/C=C/c3ccc4occc4c3)c2O)O1` (stereo not given): the Activity in test [1] amounted to 16; with Rattus norvegicus [10], 17.2%; in the test on Syrian golden hamster [2], 11%; with Syrian golden hamster [3] it was 20%; with Syrian golden hamster [4], 16%; with Syrian golden hamster [5], 21%. Moreover, the Activity was 14 in test [6]; 19% in the test on Syrian golden hamster [7]; 73.5% in the test with L6 [8]; 188% in the test with L6 [9]; 19.2% in the test with Rattus norvegicus [11].

`CC(C)=CCCC1(C)C=Cc2ccc(O)c(C(=O)/C=C/c3ccc4occc4c3)c2O1` (stereo not given): the Activity in test [1] came to 19; in the test with Syrian golden hamster [2], 11%; in the test on Syrian golden hamster [3], 14%; with Syrian golden hamster [4], 10%; in the test on Syrian golden hamster [5], 17%; in test [6] it was 11. Moreover, the Activity in the test on Syrian golden hamster [7] came to 11%; in the test with L6 [9], 108%.

For `CC(C)=CCCC1(C)C=Cc2ccc(O)c(C(=O)/C=C/c3ccc4oc(C(=O)c5ccccc5)cc4c3)c2O1` (stereo not given), the Activity in test [1] stood at 13; in the test on Syrian golden hamster [2], 8%; in the test with Syrian golden hamster [3] it was 19%; with Syrian golden hamster [4], 17%; in the test on Syrian golden hamster [5] it was 13%; in [6] it was 12. Further, the Activity in the test with Syrian golden hamster [7] came to 6%; in the test with L6 [9] it was 82.5%.

Regarding `CC(C)=CCCC1(C)C=Cc2ccc(O)c(C(=O)/C=C/c3ccc4oc(C(=O)c5ccc(C)cc5)cc4c3)c2O1` (stereo not given), the Activity in [1] is 11; in the test with Syrian golden hamster [2] it was 14%; in the test on Syrian golden hamster [3], 22%; in the test on Syrian golden hamster [4] it was 18%; with Syrian golden hamster [5] it was 22%; in test [6] it was 19. In addition, the figures for the Activity in the test with Syrian golden hamster [7] and in the test with L6 [9] were 17% and 47.4%, respectively.

As to `OC[C@@H](O)[C@@H](O)[C@H](O)[C@H](O)CO`, the Activity in [1] is 39.

For the compound `Cc1ccc(C(=O)c2cc3cc(/C=C/C(=O)c4c(O)ccc5c4OC(C)(C)C=C5)ccc3o2)cc1`, the Activity amounted to 18 in test [1]; 15% in the test on Syrian golden hamster [2]; 20% with Syrian golden hamster [3]; 16% with Syrian golden hamster [4]; 19% in the test with Syrian golden hamster [5]; 13 in test [6]. The Activity with Syrian golden hamster [7] was 11%; in the test with L6 [9], 72.9%.

As for `CC(C)=CCCC1(C)C=Cc2ccc(O)c(C(=O)/C=C/c3ccc4oc(C(=O)c5ccc(Cl)cc5)cc4c3)c2O1` (stereo not given), the Activity in [1] came out at 13; in the test with Syrian golden hamster [2], 18%; in the test with Syrian golden hamster [3] it was 15%; in the test on Syrian golden hamster [4], 11%; in the test with Syrian golden hamster [5], 24%; in test [6], 12. The Activity with Syrian golden hamster [7] was 18%; in the test with L6 [9], 4%.

In the case of `CC1(C)C=Cc2c(O)c(C(=O)/C=C/c3ccc4oc(C(=O)c5ccc(Cl)cc5)cc4c3)c3c(c2O1)C=CC(C)(C)O3`, the Activity was found to be 13 in [1]; 24% in the test with Syrian golden hamster [2]; 15% in the test on Syrian golden hamster [3]; 11% in the test with Syrian golden hamster [4]; 26% in the test with Syrian golden hamster [5]; 21 in test [6]. For the same compound, the Activity in the test on Syrian golden hamster [7] stood at 16%; in the test on L6 [9], 27%.

`COc1ccc(C(=O)c2cc3cc(/C=C/C(=O)c4ccc5c(c4O)C=CC(C)(C)O5)ccc3o2)cc1`: the Activity in test [1] was 11; in the test on Syrian golden hamster [2] it was 16%; in the test on Syrian golden hamster [3] it was 19%; in the test on Syrian golden hamster [4] it was 15%; in the test on Syrian golden hamster [5], 21%; in [6] it was 16. In addition, the Activity in the test with Syrian golden hamster [7] is on record as 13%; with L6 [9], 109.5%.
